# Test results as given in patent US9771369B2, “Compounds and methods for kinase modulation, and indications therefor” (Plexxikon Inc., priority 2014, dated 2017).
# Target: c-Kit kinase (Homo sapiens (Human), UniProt P10721)
# Experiment: c-Kit biochemical assay (AlphaScreen kinase activity)
# Procedure, shortened: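 IC50 values come from 8-point, 1:3 compound titrations measuring inhibition of peptide phosphorylation by c-Kit (commercial or His-tagged E. coli-expressed) over 1 h at room temperature, read by AlphaScreen PY30/streptavidin beads. Low-ATP version: 10 μM ATP, 100 nM biotin-(E4Y)3; high-ATP version: 100 μM ATP, 30 nM biotin-(E4Y)10.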
# Sequence of c-Kit kinase (P10721 26-976): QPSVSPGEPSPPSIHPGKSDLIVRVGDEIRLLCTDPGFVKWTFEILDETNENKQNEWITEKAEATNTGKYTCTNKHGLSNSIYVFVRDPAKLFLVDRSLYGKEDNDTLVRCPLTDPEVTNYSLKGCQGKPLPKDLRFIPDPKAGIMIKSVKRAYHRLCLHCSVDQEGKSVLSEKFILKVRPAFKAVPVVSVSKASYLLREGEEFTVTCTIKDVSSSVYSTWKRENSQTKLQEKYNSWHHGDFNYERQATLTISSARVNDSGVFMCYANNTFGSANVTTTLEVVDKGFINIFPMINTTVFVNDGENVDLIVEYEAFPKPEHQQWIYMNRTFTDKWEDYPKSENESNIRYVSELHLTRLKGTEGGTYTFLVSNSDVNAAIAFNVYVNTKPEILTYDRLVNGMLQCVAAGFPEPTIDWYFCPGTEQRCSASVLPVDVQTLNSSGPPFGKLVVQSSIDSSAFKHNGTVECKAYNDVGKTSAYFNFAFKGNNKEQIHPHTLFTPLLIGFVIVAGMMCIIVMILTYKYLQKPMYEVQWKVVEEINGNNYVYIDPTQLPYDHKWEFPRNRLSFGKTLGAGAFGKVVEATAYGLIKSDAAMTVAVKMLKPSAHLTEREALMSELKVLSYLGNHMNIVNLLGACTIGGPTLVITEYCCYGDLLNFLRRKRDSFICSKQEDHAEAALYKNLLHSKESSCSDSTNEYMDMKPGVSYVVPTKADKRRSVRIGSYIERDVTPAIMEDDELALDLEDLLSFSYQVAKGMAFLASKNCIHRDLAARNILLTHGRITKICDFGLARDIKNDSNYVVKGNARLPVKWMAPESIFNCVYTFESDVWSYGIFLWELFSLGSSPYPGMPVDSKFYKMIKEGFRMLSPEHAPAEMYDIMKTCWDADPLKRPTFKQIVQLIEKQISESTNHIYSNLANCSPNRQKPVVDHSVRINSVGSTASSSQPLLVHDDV
row,Structure (SMILES),IC50 [µM]
1,"CCOc1ccc(-c2[nH]c(C3(C)CCN(c4ncnc5[nH]c(-c6ccc(N7CCOCC7)nc6)cc45)CC3)nc2C)cc1 [P-3227, 4-[5-[4-[4-[5-(4-ethoxyphenyl)-4-methyl-1H-imidazol-2-yl]-4-methyl-1-piperidyl]-7H-pyrrolo[2,3-d]pyrimidin-6-yl]-2-pyridyl]morpholine]",0.0001 to 1
2,"COc1ccc(-c2[nH]c(C3(C)CCN(c4ncnc5[nH]c(-c6ccc(NS(C)(=O)=O)cc6)cc45)CC3)nc2C)cc1C [P-3228, N-[4-[4-[4-[5-(4-methoxy-3-methyl-phenyl)-4-methyl-1H-imidazol-2-yl]-4-methyl-1-piperidyl]-7H-pyrrolo[2,3-d]pyrimidin-6-yl]phenyl]methanesulfonamide]",0.0001 to 1
3,"CCOc1ccc(-c2[nH]c(C3(C)CCN(c4ncnc5[nH]c(-c6ccc(C(N)=O)cc6)cc45)CC3)nc2C)cc1 [P-3229, 4-[4-[4-[5-(4-ethoxyphenyl)-4-methyl-1H-imidazol-2-yl]-4-methyl-1-piperidyl]-7H-pyrrolo[2,3-d]pyrimidin-6-yl]benzamide]",0.0001 to 1
4,"CCOc1ccc(-c2[nH]c(C3(C)CCN(c4ncnc5[nH]c(-c6ccc(NS(C)(=O)=O)cc6)cc45)CC3)nc2C)cc1 [P-3230, N-[4-[4-[4-[5-(4-ethoxyphenyl)-4-methyl-1H-imidazol-2-yl]-4-methyl-1-piperidyl]-7H-pyrrolo[2,3-d]pyrimidin-6-yl]phenyl]methanesulfonamide]",0.0001 to 1
5,"Cc1nc(C2(C)CCN(c3ncnc4[nH]c(-c5ccc(C(N)=O)cc5)cc34)CC2)[nH]c1-c1cccc(OC(F)F)c1 [P-3231, 4-[4-[4-[5-[3-(difluoromethoxy)phenyl]-4-methyl-1H-imidazol-2-yl]-4-methyl-1-piperidyl]-7H-pyrrolo[2,3-d]pyrimidin-6-yl]benzamide]",0.0001 to 1
6,"Cc1nc(C2(C)CCN(c3ncnc4[nH]c(-c5ccc(NS(C)(=O)=O)cc5)cc34)CC2)[nH]c1-c1cccc(OC(F)F)c1 [P-3232, N-[4-[4-[4-[5-[3-(difluoromethoxy)phenyl]-4-methyl-1H-imidazol-2-yl]-4-methyl-1-piperidyl]-7H-pyrrolo[2,3-d]pyrimidin-6-yl]phenyl]methanesulfonamide]",0.0001 to 1
7,"Cc1nc(C2(C)CCN(c3ncnc4[nH]c(-c5ccc(OCC(=O)O)cc5)cc34)CC2)[nH]c1-c1cccc(OC(F)F)c1 [P-3233, 2-[4-[4-[4-[5-[3-(difluoromethoxy)phenyl]-4-methyl-1H-imidazol-2-yl]-4-methyl-1-piperidyl]-7H-pyrrolo[2,3-d]pyrimidin-6-yl]phenoxy]acetic acid]",0.0001 to 1
8,"COc1cccc(-c2[nH]c(C3(C)CCN(c4ncnc5[nH]c(-c6ccc(NS(C)(=O)=O)cc6)cc45)CC3)nc2C)c1 [P-3234, N-[4-[4-[4-[5-(3-methoxyphenyl)-4-methyl-1H-imidazol-2-yl]-4-methyl-1-piperidyl]-7H-pyrrolo[2,3-d]pyrimidin-6-yl]phenyl]methanesulfonamide]",0.0001 to 1
9,"CNC(=O)c1ccc(-c2cc3c(N4CCC(C)(c5nc(C)c(-c6ccc(C(F)F)cc6)[nH]5)CC4)ncnc3[nH]2)cn1 [P-3235, 5-[4-[4-[5-[4-(difluoromethyl)phenyl]-4-methyl-1H-imidazol-2-yl]-4-methyl-1-piperidyl]-7H-pyrrolo[2,3-d]pyrimidin-6-yl]-N-methyl-pyridine-2-carboxamide]",0.0001 to 1
10,"CNC(=O)c1ccc(-c2cc3c(N4CCC(C)(c5nc(C)c(-c6cccc(OC(F)F)c6)[nH]5)CC4)ncnc3[nH]2)cn1 [P-3236, 5-[4-[4-[5-[3-(difluoromethoxy)phenyl]-4-methyl-1H-imidazol-2-yl]-4-methyl-1-piperidyl]-7H-pyrrolo[2,3-d]pyrimidin-6-yl]-N-methyl-pyridine-2-carb oxamide]",0.0001 to 1
11,"Cc1nc(C2(C)CCN(c3ncnc4[nH]c(-c5ccc(N6CCOCC6)nc5)cc34)CC2)[nH]c1-c1ccc(C(F)F)cc1 [P-3237, 4-[5-[4-[4-[5-[4-(difluoromethyl)phenyl]-4-methyl-1H-imidazol-2-yl]-4-methyl-1-piperidyl]-7H-pyrrolo[2,3-d]pyrimidin-6-yl]-2-pyridyl]morpholine]",0.0001 to 1
12,"Cc1nc(C2(C)CCN(c3ncnc4[nH]c(-c5ccc(N6CCOCC6)nc5)cc34)CC2)[nH]c1-c1cccc(OC(F)F)c1 [P-3238, 4-[5-[4-[4-[5-[3-(difluoromethoxy)phenyl]-4-methyl-1H-imidazol-2-yl]-4-methyl-1-piperidyl]-7H-pyrrolo[2,3-d]pyrimidin-6-yl]-2-pyridyl]morpholine]",0.0001 to 1
13,"Cc1nc(C2(C)CCN(c3ncnc4[nH]c(-c5ccc(C(N)=O)cc5)cc34)CC2)[nH]c1-c1ccc(C(F)F)cc1 [P-3239, 4-[4-[4-[5-[4-(difluoromethyl)phenyl]-4-methyl-1H-imidazol-2-yl]-4-methyl-1-piperidyl]-7H-pyrrolo[2,3-d]pyrimidin-6-yl]benzamide]",0.0001 to 1
14,"Cc1nc(C2(C)CCN(c3ncnc4[nH]c(-c5ccc(OCC(=O)O)cc5)cc34)CC2)[nH]c1-c1ccc(C(F)F)cc1 [P-3240, 2-[4-[4-[4-[5-[4-(difluoromethyl)phenyl]-4-methyl-1H-imidazol-2-yl]-4-methyl-1-piperidyl]-7H-pyrrolo[2,3-d]pyrimidin-6-yl]phenoxy]acetic acid]",0.0001 to 1
15,"Cc1nc(C2(C)CCN(c3ncnc4[nH]c(-c5ccc(OCC(=O)O)cc5)cc34)CC2)[nH]c1-c1ccc(OC(F)F)cc1 [P-3241, 2-[4-[4-[4-[5-[4-(difluoromethoxy)phenyl]-4-methyl-1H-imidazol-2-yl]-4-methyl-1-piperidyl]-7H-pyrrolo[2,3-d]pyrimidin-6-yl]phenoxy]acetic acid]",0.0001 to 1
16,"Cc1nc(C2(C)CCN(c3ncnc4[nH]c(-c5cnn(C(F)F)c5)cc34)CC2)[nH]c1-c1ccc(OC(F)F)cc1 [P-3242, 4-[4-[5-[4-(difluoromethoxy)phenyl]-4-methyl-1H-imidazol-2-yl]-4-methyl-1-piperidyl]-6-[1-(difluoromethyl)pyrazol-4-yl]-7H-pyrrolo[2,3-d]pyrimidine]",0.0001 to 1
17,"CCOc1ccc(-c2[nH]c(C3(C)CCN(c4ncnc5[nH]c(-c6ccc(C(N)=O)cc6)cc45)CC3)nc2C)cc1C [P-3243, 4-[4-[4-[5-(4-ethoxy-3-methyl-phenyl)-4-methyl-1H-imidazol-2-yl]-4-methyl-1-piperidyl]-7H-pyrrolo[2,3-d]pyrimidin-6-yl]benzamide]",0.0001 to 1
18,"CCOc1ccc(-c2[nH]c(C3(C)CCN(c4ncnc5[nH]c(-c6ccc(OCC(=O)O)cc6)cc45)CC3)nc2C)cc1C [P-3244, 2-[4-[4-[4-[5-(4-ethoxy-3-methyl-phenyl)-4-methyl-1H-imidazol-2-yl]-4-methyl-1-piperidyl]-7H-pyrrolo[2,3-d]pyrimidin-6-yl]phenoxy]acetic acid]",0.0001 to 1
19,"CCOc1ccc(-c2[nH]c(C3(C)CCN(c4ncnc5[nH]c(-c6cnn(C(F)F)c6)cc45)CC3)nc2C)cc1C [P-3245, 6-[1-(difluoromethyl)pyrazol-4-yl]-4-[4-[5-(4-ethoxy-3-methyl-phenyl)-4-methyl-1H-imidazol-2-yl]-4-methyl-1-piperidyl]-7H-pyrrolo[2,3-d]pyrimidine]",0.0001 to 1
20,"CNC(=O)c1ccc(-c2cc3c(N4CCC(C)(c5nc(C)c(-c6ccc(OC(F)F)cc6)[nH]5)CC4)ncnc3[nH]2)cn1 [P-3246, 5-[4-[4-[5-[4-(difluoromethoxy)phenyl]-4-methyl-1H-imidazol-2-yl]-4-methyl-1-piperidyl]-7H-pyrrolo[2,3-d]pyrimidin-6-yl]-N-methyl-pyridine-2-carb oxamide]",0.0001 to 1
21,"CCOc1ccc(-c2[nH]c(C3(C)CCN(c4ncnc5[nH]c(-c6ccc(C(=O)NC)nc6)cc45)CC3)nc2C)cc1C [P-3247, 5-[4-[4-[5-(4-ethoxy-3-methyl-phenyl)-4-methyl-1H-imidazol-2-yl]-4-methyl-1-piperidyl]-7H-pyrrolo[2,3-d]pyrimidin-6-yl]-N-methyl-pyridine-2-carb oxamide]",0.0001 to 1
22,"Cc1nc(C2(C)CCN(c3ncnc4[nH]c(-c5ccc(N6CCOCC6)nc5)cc34)CC2)[nH]c1-c1ccc(OC(F)F)cc1 [P-3248, 4-[5-[4-[4-[5-[4-(difluoromethoxy)phenyl]-4-methyl-1H-imidazol-2-yl]-4-methyl-1-piperidyl]-7H-pyrrolo[2,3-d]pyrimidin-6-yl]-2-pyridyl]morpholine]",0.0001 to 1
23,"CCOc1ccc(-c2[nH]c(C3(C)CCN(c4ncnc5[nH]c(-c6ccc(N7CCOCC7)nc6)cc45)CC3)nc2C)cc1C [P-3249, 4-[5-[4-[4-[5-(4-ethoxy-3-methyl-phenyl)-4-methyl-1H-imidazol-2-yl]-4-methyl-1-piperidyl]-7H-pyrrolo[2,3-d]pyrimidin-6-yl]-2-pyridyl]morpholine]",0.0001 to 1
